Values of other authors as cited in publication PMC5643362 (Acta Diabetologica, 2017).

Resistance to dipeptidyl peptidase IV (dipeptidyl peptidase IV): resistant
Resistance to neural endopeptidase (neural endopeptidase): resistant
Substance: Exendin-4
